One may read the IC50 as the midpoint of a concentration-inhibition curve.

Series [1] in a line: Cytotoxicity against human […] cells assessed as reduction in cell viability measured after 48 hrs by MTS assay. In kind it is functional, cell-based. For orientation: Formazan colour is commonly taken as a measure of viable cells.
Series [2] deals with SW480. In words: Cytotoxicity against human SW480 cells assessed as reduction in cell viability measured after 48 hrs by MTS assay. As to conditions: SW480, 48 h. In kind it is functional, cell-based.
Series [3] concerns A549. In words: Cytotoxicity against human A549 cells assessed as reduction in cell viability measured after 48 hrs by MTS assay. In kind it is functional, cell-based. As to conditions: A549, 48 h.
Series [4] relates to HL-60. In words: Cytotoxicity against human HL60 cells assessed as reduction in cell viability measured after 48 hrs by MTS assay. Type of series: functional, cell-based. As to conditions: HL-60, 48 h.
Series [5] relates to MCF7. In words: Cytotoxicity against human MCF7 cells assessed as reduction in cell viability measured after 48 hrs by MTS assay. Type of series: functional, cell-based. As to conditions: MCF7, 48 h.
The nature of series [6]: Cytotoxicity against mouse RAW264.7 cells assessed as cell viability measured after 48 hrs by MTS assay relative to control. In kind it is cell-based. As to conditions: read-out: Activity.
Series [7] deals with RAW264.7. In words: Anti-inflammatory activity in mouse RAW264.7 cells assessed as inhibition of LPS-induced nitric oxide production measured after 18 hrs by Griess assay. Type of series: functional, cell-based. The conditions noted are these: RAW264.7, 18 h.

Where only a bound is given, the exact number is not on record here.

In the case of `CC(=O)O[C@@H]1C[C@@H]2O[C@@H]3C[C@@]4(C)[C@H](c5ccoc5)C[C@H]5O[C@]54[C@](C)(O)[C@H]3[C@]2(C)[C@@]2(O)[C@@H](O)C(=O)O[C@@]12C`, the IC50 in series [1] was above 10 µM; in series [2], 3.7 µM; in series [3], above 10 µM; in series [4], above 10 µM; in series [5] it was 2.4 µM.
For `CC1(C)OC(=O)C=C[C@]2(C)[C@H]3CC[C@@]4(C)[C@H](C5=CCNC5=O)C[C@H]5O[C@]54[C@]3(C)OC(=O)C[C@@H]12`, the IC50 in series [1], in series [2], in series [3], in series [4] and in series [5] was above 10 µM throughout.
Consider `CC1(C)C(=O)C=C[C@]2(C)C3=CC[C@@]4(C)[C@H](C5=CCNC5=O)C[C@H]5O[C@]54[C@]3(C)C(=O)C[C@@H]12`, for which the IC50 in series [1], in series [2], in series [3], in series [4] and in series [5] was above 10 µM throughout.
For `C[C@]12[C@H](c3ccoc3)C[C@H]3O[C@]31[C@](C)(O)[C@@H]1[C@H](O[C@@]3(O)C=C[C@]4(C)OC(=O)[C@H](O)[C@]4(O)[C@@]13C)[C@@H]2O`, the IC50 in series [1], in series [2], in series [3], in series [4] and in series [5] was above 10 µM throughout.
In the case of `CC(=O)O[C@@H]1C[C@]2(C)[C@@H](C(=O)C[C@H]2c2ccoc2)[C@]2(C)[C@H](O)C[C@H]3C(C)(C)OC(=O)C=C[C@]3(C)[C@@H]12`, the IC50 in series [1], in series [2], in series [3], in series [4] and in series [5] was above 10 µM each time.
On to `CC(=O)O[C@H]1[C@@H](OC(C)=O)[C@]2(C)[C@H]([C@H](O)C[C@@]3(C)[C@H](c4ccoc4)C[C@H]4O[C@@]423)[C@@]2(C)C=CC(=O)OC(C)(C)[C@H]12`, for which the IC50 in series [1], in series [2], in series [3], in series [4] and in series [5] was above 10 µM in each case.
For the molecule `CC1(C)OC(=O)C=C[C@]2(C)[C@H]3CC[C@@]4(C)[C@H](C5=CC(=O)NC5=O)C[C@H]5O[C@]54[C@]3(C)C(=O)C[C@@H]12`, in series [6], the viability at 48 h was above 100%. For the same molecule, the IC50 is above 10 µM in series [1]; 28.3 µM in series [7]; above 10 µM in series [2]; above 10 µM in series [3]; above 10 µM in series [4]; above 10 µM in series [5].
With `CO[C@]12C=C[C@]3(C)OC(=O)[C@H](O)[C@]3(O)[C@@]1(C)[C@H]1[C@@H](C[C@@]3(C)[C@H](c4ccoc4)C[C@H]4O[C@]43[C@]1(C)O)O2`, the IC50 in series [1], in series [2], in series [3], in series [4] and in series [5] was above 10 µM throughout.
For `C[C@]12[C@H](C[C@@H](O)[C@]3(C)OC(=O)[C@H](O)[C@]13O)O[C@@H]1C[C@@]3(C)[C@H](c4ccoc4)C[C@H]4O[C@]43[C@](C)(O)[C@H]12`, the IC50 in series [1] is above 10 µM; in series [2], 0.9 µM; in series [3], above 10 µM; in series [4] it was 0.6 µM; in series [5], 0.9 µM.
Regarding `CC1(C)OC(=O)C=C[C@]2(C)[C@H]3[C@H](O)C[C@@]4(C)[C@H](c5ccoc5)C[C@H]5O[C@]54[C@]3(C)C(=O)C[C@@H]12`, the IC50 in series [1], in series [2], in series [3], in series [4] and in series [5] was above 10 µM each time.
As to `C[C@]12[C@H]3[C@@H](C[C@@]4(C)[C@H](c5ccoc5)C[C@H]5O[C@]54[C@]3(C)O)O[C@@]1(O)C=C[C@]1(C)OC(=O)[C@H](O)[C@]21O`, the IC50 is above 10 µM in series [1]; 1.5 µM in series [2]; above 10 µM in series [3]; 2.3 µM in series [4]; 2.1 µM in series [5].
On to `C[C@]12[C@H]3[C@@H](C[C@@]4(C)[C@H](C5=CCNC5=O)C[C@H]5O[C@]54[C@]3(C)O)O[C@@]1(O)C=C[C@]1(C)OC(=O)[C@H](O)[C@]21O`, for which the IC50 in series [1], in series [2], in series [3], in series [4] and in series [5] was above 10 µM in each case.
Turning to `C[C@]12[C@H](CC(=O)[C@]3(C)OC(=O)[C@H](O)[C@]13O)O[C@@H]1C[C@@]3(C)[C@H](c4ccoc4)C[C@H]4O[C@]43[C@](C)(O)[C@H]12`, the IC50 in series [1] is above 10 µM; in series [2] it was 2.3 µM; in series [3], above 10 µM; in series [4] it was 0.8 µM; in series [5] it was 4 µM.
For `CC1(C)OC(=O)C=C[C@]2(C)[C@H]3C[C@H](O)[C@@]4(C)[C@H](c5ccoc5)C[C@H]5O[C@]54[C@]3(C)OC(=O)C[C@@H]12`, the IC50 in series [1], in series [2], in series [3], in series [4] and in series [5] was above 10 µM in each case.
Consider `CC(=O)O[C@H]1[C@H]2O[C@H]3C[C@@H](O)[C@]4(C)OC(=O)[C@H](O)[C@]4(O)[C@@]3(C)[C@@H]2[C@@](C)(O)[C@@]23O[C@@H]2C[C@@H](c2ccoc2)[C@]13C`, for which the IC50 in series [1] was above 10 µM; in series [2], 4 µM; in series [3], above 10 µM; in series [4] it was 1.6 µM; in series [5], 3.7 µM.
In the case of `C[C@]12[C@H](C[C@H](O)[C@]3(C)OC(=O)[C@H](O)[C@]13O)O[C@H]1[C@H]2[C@@](C)(O)[C@@]23O[C@@H]2C[C@@H](c2ccoc2)[C@]3(C)[C@H]1O`, the IC50 in series [1], in series [2], in series [3], in series [4] and in series [5] was above 10 µM in each case.
As for `CO[C@@H]1C=C([C@@H]2C[C@H]3O[C@@]34[C@@]2(C)CC[C@@H]2[C@@]3(C)C=CC(=O)OC(C)(C)[C@@H]3CC(=O)O[C@]24C)C(=O)O1`, the IC50 in series [1], in series [2], in series [3], in series [4] and in series [5] was above 10 µM in each case.
As for `CO[C@@H]1C=C([C@@H]2C[C@H]3O[C@@]34[C@@]2(C)C[C@H]2O[C@@]3(O)C=C[C@]5(C)OC(=O)[C@H](O)[C@]5(O)[C@@]3(C)[C@@H]2[C@@]4(C)O)C(=O)O1`, the IC50 in series [1], in series [2], in series [3], in series [4] and in series [5] was above 10 µM throughout.
As for `CO[C@@H]1C=C([C@@H]2C[C@H]3O[C@@]34[C@@]2(C)C[C@H]2O[C@H]3C[C@H](O)[C@]5(C)OC(=O)[C@H](O)[C@]5(O)[C@@]3(C)[C@@H]2[C@@]4(C)O)C(=O)O1`, the IC50 in series [1], in series [2], in series [3], in series [4] and in series [5] was above 10 µM each time.
Take `C[C@]12[C@H](C[C@H](O)[C@]3(C)OC(=O)[C@H](O)[C@]13O)O[C@@H]1C[C@@]3(C)[C@H](c4ccoc4)C[C@H]4O[C@]43[C@](C)(O)[C@H]12`: the IC50 in series [1], in series [2], in series [3], in series [4] and in series [5] was above 10 µM in each case.
As to `CC1(C)OC(=O)C=C[C@]2(C)[C@H]3CC[C@]4(C)[C@@H](C(=O)C[C@H]4c4ccoc4)[C@]3(C)[C@H](O)C[C@@H]12`, the IC50 in series [1], in series [2], in series [3], in series [4] and in series [5] was above 10 µM each time.
On to `C[C@]12[C@H](CC(=O)[C@]3(C)OC(=O)[C@H](O)[C@]13O)O[C@H]1[C@H]2[C@@](C)(O)[C@@]23O[C@@H]2C[C@@H](c2ccoc2)[C@]3(C)[C@H]1O`, for which the IC50 in series [1] is above 10 µM; in series [2], 2.5 µM; in series [3] it was above 10 µM; in series [4] it was 0.9 µM; in series [5] it was 3 µM.
For the molecule `CC(=O)O[C@H]1C(=O)O[C@@]2(C)[C@H](OC(C)=O)C[C@@H]3O[C@@H]4C[C@@]5(C)[C@H](c6ccoc6)C[C@H]6O[C@]65[C@](C)(O)[C@H]4[C@]3(C)[C@@]12O`, the IC50 in series [1] was above 10 µM; in series [2], 2.3 µM; in series [3], above 10 µM; in series [4], above 10 µM; in series [5], 2.1 µM.

The values above are taken from ChEMBL document CHEMBL4414581, “Cytotoxic Limonoids from the Twigs and Leaves of Toona ciliata” (J Nat Prod, 2019).
